Data published in patent publication US8921373B2, “Compounds having TRPV1 antagonistic activity and uses thereof” (Shionogi & Co., Ltd., priority 2010, dated 2014).

Key:
human recombinant TRPV1 [1] = biological target: T1, human recombinant TRPV1 (Homo sapiens (Human), UniProt Q8NER1); test: TRPV1 Capsaicin-Based Assay (Protocol 2, TRPV1/CHO cells, Fluo-4, FLIPR); assay type: cell-based; settings: TRPV1/CHO cells, capsaicin 100 nM final; read-out: IC50 value by the Capsaicin-Based Assay
Summary of the method: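 CHO cells stably expressing human TRPV1 were loaded with 3 μM Fluo-4 for 1 h, then given compounds in HBSS/1 mM CaCl2/20 mM HEPES pH 7.4 with 1% DMSO for 2 min before 100 nM capsaicin (final). FLIPR fluorescence recorded over the full course; curves fitted.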

[2] = tested on: FCA-induced inflammation of the rat hind paw; test: Freund's complete adjuvant (FCA) model of inflammatory pain, reversal of hyperalgesia; assay type: in vivo; settings: rats
Method: Test Animals: Each experiment uses rats weighing between 200-260 g at the start of the experiment. The rats are group-housed and have free access to food and water at all times, except prior to oral administration of a compound of Formula I when food is removed for 16 hours before dosing. A control group acts as a comparison to rats treated with a compound of Formula I. The control group is administered the carrier for the compound of Formula I. The volume of carrier administered to the control group is the same as the volume of carrier and compound of Formula I administered to the test group.
Inflammatory Pain: To assess the actions of the compounds of Formula I on the treatment or prevention of inflammatory pain the Freund's complete adjuvant (“FCA”) model of inflammatory pain is used. […] 24 hour post injection, the animal is assessed for response to noxious mechanical stimuli by determining the PWT, or to noxious thermal stimuli by determining the PWL, as described below. […] Responses to noxious mechanical or thermal stimuli are then determined 1, 3, 5 and 24 hours post administration. […]
Response to Mechanical Stimuli as an Assessment of Mechanical Hyperalgesia: The paw pressure assay can be used to assess mechanical hyperalgesia. For this assay, hind paw withdrawal thresholds (PWT) to a noxious mechanical stimulus are determined using an analgesymeter (Model 7200, commercially available from Ugo Basile of Italy) as described in C. […] PWT is determined once for each rat at each time point and only the affected (ipsilateral) paw is tested.
Response to Thermal Stimuli as an Assessment of Thermal Hyperalgesia: The plantar test can be used to assess thermal hyperalgesia. For this test, hind paw withdrawal latencies (PWL) to a noxious thermal stimulus are determined using a plantar test apparatus (commercially available from Ugo Basile of Italy) following the technique described by K. Hargreaves et al., “A New and Sensitive Method for Measuring Thermal Nociception in Cutaneous Hyperalgesia,” Pain 32(1):77-88 (1988). […] Three latencies are determined at each time point and averaged. […]

human recombinant TRPV1 [3] = biological target: T1, human recombinant TRPV1; test: TRPV1 pH-Based Assay (Protocol 2, Ca2+ response in TRPV1/CHO cells, Fura-2); assay type: cell-based; settings: TRPV1/CHO cells, pH 5.0-5.1; read-out: IC50 value by the pH-Based Assay
Summary of the method: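 CHO cells stably expressing human TRPV1, Fura-2 loaded, given compound (1% DMSO in 10× stock) before acid challenge to final pH 5.0-5.1 (3.2 or 3.3 mM H2SO4). 340/380 nm ratio recorded at 0.5 Hz; maximal ratio after agonist addition versus 16-point baseline used as response.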

T1 sequence (Q8NER1 whole entry): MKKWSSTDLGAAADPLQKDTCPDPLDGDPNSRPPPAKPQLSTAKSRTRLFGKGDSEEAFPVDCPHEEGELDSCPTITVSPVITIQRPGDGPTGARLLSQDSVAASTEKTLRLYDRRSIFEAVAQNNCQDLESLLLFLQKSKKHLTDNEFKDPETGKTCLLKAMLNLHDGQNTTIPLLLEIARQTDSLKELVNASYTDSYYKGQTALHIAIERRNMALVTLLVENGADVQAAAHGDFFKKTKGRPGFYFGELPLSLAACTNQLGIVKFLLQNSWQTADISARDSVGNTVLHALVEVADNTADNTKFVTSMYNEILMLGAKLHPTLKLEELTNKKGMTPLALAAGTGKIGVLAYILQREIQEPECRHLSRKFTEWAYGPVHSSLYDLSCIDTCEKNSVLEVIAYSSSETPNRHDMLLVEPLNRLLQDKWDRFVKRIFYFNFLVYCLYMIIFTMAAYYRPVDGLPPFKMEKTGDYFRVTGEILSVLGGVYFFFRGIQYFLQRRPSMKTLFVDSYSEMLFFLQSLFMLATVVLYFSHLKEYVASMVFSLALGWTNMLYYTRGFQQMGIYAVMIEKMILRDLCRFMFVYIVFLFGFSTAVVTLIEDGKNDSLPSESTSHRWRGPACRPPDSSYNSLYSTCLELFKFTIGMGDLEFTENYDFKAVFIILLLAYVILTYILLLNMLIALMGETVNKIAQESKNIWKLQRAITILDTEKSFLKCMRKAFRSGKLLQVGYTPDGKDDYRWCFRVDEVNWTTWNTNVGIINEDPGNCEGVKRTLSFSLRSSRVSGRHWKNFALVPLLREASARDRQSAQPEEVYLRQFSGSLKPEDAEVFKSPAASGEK

C[C@H]1CN(c2ncc(C[C@@H](O)CO)cc2C(F)(F)F)CCN1C(=O)Nc1nc2ccc(F)cc2s1 [AGU]
IC50 (human recombinant TRPV1 [1]): ≤ 50 nM
Percentage reversal of hyperalgesia, % Reversal (3 mg/Kg, 3 hours post administration) [2]: 71%
IC50 (human recombinant TRPV1 [3]): ≤ 50 nM

Cc1ccc2nc(NC(=O)N3CCN(c4ncc(C[C@@H](O)CO)cc4F)C[C@@H]3C)sc2c1 [AEM]
Percentage reversal of hyperalgesia, % Reversal (3 mg/Kg, 3 hours post administration) [2]: 59.7%
IC50 (human recombinant TRPV1 [3]): ≤ 50 nM
